Measurements published in patent US20080200538A1, “Inhibition of Monocyte Survival, Differentiation, or Proliferation” (The Ohio State University Research Foundation, priority 2005, published 2008).

System: THP-1 cells
Assay: Cell survival and apoptosis by calcein AM/PI staining
Type: cell-based, human
Method: FIG. 2. Apigenin induces cell death in monocytic leukemia cells. THP-1 and U937 leukemia cells were treated for various lengths of time with 50 μM apigenin or left untreated (NT) and stained with calcein AM and PI as described in Material and Methods to evaluate the percentage of cell survival. (A) THP cells after 12 h cells treated with 50 μM apigenin or with DMSO (NT). (B) The percentage of cell survival represented by means ±SEM (N=3).
FIG. 4. Caspase-3 activation is required for apigenin-induced apoptosis. THP-1 cells were treated for 12 h with 50 μM apigenin alone or pretreated with 20 μM DEVD-FMK for 1 h prior to the addition of apigenin. (A) Cells were then stained with calcein AM and 24 PI and the percentage of apoptotic cells was determined. (B) Lysates from cells treated as described above were used to determined caspase-3 activity by the DEVD-AFC assay. All data represents means ±SEM (N=5).
FIG. 7. Apigenin induced p38 activation is not required for apoptosis. A. Cells were pretreated for 1 h prior to addition of 50 μM apigenin or DMSO (−) with 10 or 25 μM concentrations of SB203580 or DMSO (−) for 12 h. The percentage of apoptotic cells was determined by calcein AM with PI stained cells. Data represents means ±SEM (N=5 p>0.05). B. Lysates from the same treatments were used to determined caspase-3 activity by the DEVD-AFC assay. Data represents means ±SEM (N=5 p>0.05).
To investigate apoptosis, cells were plated at a density of 1×10^6 cells/well. After treatment, cells were collected and washed in PBS. Cells were then incubated in RPMI (no phenol red) and 1 μg/ml calcein AM for 30 min and 5×10−2 ng/ml propidium iodide (PI) for 5 min. Cells were washed twice and resuspended in PBS. Cells were viewed using a fluorescent microscope (Olympus, Melville, N.Y.). At least 200 cells were counted. Cells calcein AM positive (green) in the absence of PI (red) were considered alive while cells undergoing apoptosis are green with red. Number of green cells or green with red cells was counted over total number of cells (green alone and green with red) to express cell survival or apoptotic cell percentage respectively.

SMILES: O=c1cc(-c2ccc(O)cc2)oc2cc(O)cc(O)c12 [apigenin]
- viability at 50 µM (Homo sapiens, THP-1, 12 h, read-out: cell viability (survival)): 30%
- apoptotic cells (THP-1, 50 μM apigenin alone, 12 h): 70%
- cell survival (THP-1, 50 μM, 9 h, reduced to): 80%
